# Measured values from patent US20040038950A1, “Pharmaceutical composition for treating IL-1 related diseases or disorders” (priority 2002, published 2004).
# Legend:
# [1] = test system: human chondrocyte; assay: Cell proliferation, [3H]thymidine assay in chondrocyte alginate bead culture; format: cell-based; details: 10-100 μM DHEA
# Experimental: Chondrocytes were isolated from the knee joint of patient undergoing a knee replacement due to osteoarthritis. Cartilage was digested with 0.2% protease Type XIV (Sigma) for 1 hour, followed by 3-hour incubation with 0.2% collagenase Type IA (Sigma) at 37° C. Following the incubation, the undigested cartilage fragments were removed using a 70 μm Nylon sieve. Chondrocytes were washed with DPBS and maintained in monolayer culture for 7 days in Dulbecco's modified Eagle's medium (DMEM; Life Technologies Inc.) which contained 10% fetal bovine serum (FBS; Life Technologies), 100 units/ml penicillin-streptomycin (Life Technologies) and 25 μg/ml L-ascorbic acid (Sigma). All experiments were performed with primary or first passage cells. The preparation of chondrocytes in alginate beads was carried out with 4×10^6 cells per 1 ml of alginate. […]
# For cell proliferation, [^3H]thymidine assay was performed on a 96-well plate (Nunc) with one alginate bead per well. […] After collecting the cells using a cell harvester (Wallac), [^3H]thymidine uptake was quantitated by measuring β emission on a β-counter (Wallac). […] The ^35SO4-labeled proteoglycan content was measured by a liquid scintillation counter (Wallac). The total cellular DNA was determined by Indole assay.
# [2] = test system: type II collagen mRNA; assay: Osteoarthritic rabbit model (ACLT), intraarticular injection, RT-PCR of type II collagen; format: in vivo; details: rabbit ACLT knee, intraarticular once a week for 5 weeks
# Experimental: Mature New Zealand White rabbits underwent bilateral anterior cruciate ligament transection (ACLT). ACLT was performed using a medial arthrotomy method. Postoperatively the animals were permitted cage (60 cm×60 cm×40 cm) activity without immobilization. The right knees received via intraartiticular injection DHEA, DHEA-pyruvate or DHEA+HA, 4 weeks after ACLT and once a week for 5 weeks. The left knees received 0.3 ml of intraarticular injection with control solution (carrier solution). After 9 weeks from ACLT, the animas were sacrificed.
# Synovium (entire tissue) around the infrapatellar fat pads and cartilage tissue from the femoral condyle and the tibial plateau were harvested. The subsequent experimental procedure was the same as described in Test Example IV.
structure (smiles),measurement,setting,value
"C[C@]12CC[C@H](O)CC1=CC[C@@H]1[C@@H]2CC[C@]2(C)C(=O)CC[C@@H]12 [DHEA, dehyroepiandrosterone]",effect on cell proliferation,[1]; after day 5,insignificant
same,cell proliferation,[1]; as early as day 3 of culture,slightly reduced
same,expression of type II collagen,[2],increased
